# Measurements taken from ChEMBL document CHEMBL1201862, “PubChem BioAssay data set” (2004).
#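 Cells were grown in 96-well plates and exposed to each compound for 48 hours at five concentrations; endpoints were interpolated linearly between bracketing concentrations, or set to the highest concentration if not reached. GI50 marks 50% less growth.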 Calls of active or inactive are those of the source. No stated cut-off is given here; in the data, active = GI50 up to about 1.1 µM and inactive = higher.
# Tests used:
# Assay in all cases: NCI-60 cell line screen, 48 h
# SNB-19 = system: SNB-19
# SR = system: SR
# SF-268 = system: SF-268
# IGROV-1 = system: IGROV-1
# HCT-116 = system: HCT-116
# KM12 = system: KM12
# TK-10 = system: TK-10
# SK-MEL-28 = system: SK-MEL-28
# RXF 393 = system: RXF 393
# DLD-1 = system: DLD-1
# HL-60 = system: HL-60
# ACHN = system: ACHN
# DMS-114 = system: DMS-114
# LXFL 529 = system: LXFL 529
# LOX IMVI = system: LOX IMVI
# HCC 2998 = system: HCC 2998
# A498 = system: A498
# SN12C = system: SN12C
# HT-29 = system: HT-29
# NCI-H522 = system: NCI-H522
# SK-MEL-5 = system: SK-MEL-5
# Malme-3M = system: Malme-3M
# SK-OV-3 = system: SK-OV-3
# NCI-H23 = system: NCI-H23
# HOP-62 = system: HOP-62
# HCT-15 = system: HCT-15
# RPMI-8226 = system: RPMI-8226
# SF-295 = system: SF-295
# SF-539 = system: SF-539
# A549 = system: A549
# HOP-18 = system: HOP-18
# 786-0 = system: 786-0
# SK-MEL-2 = system: SK-MEL-2
# OVCAR-3 = system: OVCAR-3
# NCI-H460 = system: NCI-H460
# U-251 = system: U-251
# K562 = system: K562
# KM-20L2 = system: KM-20L2
# SNB-75 = system: SNB-75
# SW-620 = system: SW-620
# CCRF-CEM = system: CCRF-CEM
# MOLT-4 = system: MOLT-4
# DMS-273 = system: DMS-273
# UO-31 = system: UO-31
# OVCAR-8 = system: OVCAR-8
# M19-MEL = system: M19-MEL
# HOP-92 = system: HOP-92
# UACC-62 = system: UACC-62
# M14 = system: M14
# OVCAR-4 = system: OVCAR-4
# COLO 205 = system: COLO 205
# CAKI-1 = system: CAKI-1
# OVCAR-5 = system: OVCAR-5
# UACC-257 = system: UACC-257
# NCI-H226 = system: NCI-H226
# EKVX = system: EKVX
# SNB-78 = system: SNB-78
compound,measurement,setting,value
NC1=NS(=O)(=O)Nc2nc(-c3ccc(Cl)cc3)[nH]c21,GI50,SNB-19,> 100 µM (inactive)
same,GI50,SR,> 100 µM (inactive)
same,GI50,SF-268,> 100 µM (inactive)
same,GI50,IGROV-1,> 100 µM (inactive)
same,GI50,HCT-116,> 100 µM (inactive)
same,GI50,KM12,> 100 µM (inactive)
same,GI50,TK-10,> 100 µM (inactive)
same,GI50,SK-MEL-28,> 100 µM (inactive)
same,GI50,RXF 393,> 10 µM (inactive)
same,GI50,DLD-1,> 100 µM (inactive)
same,GI50,HL-60,> 100 µM (inactive)
same,GI50,ACHN,> 100 µM (inactive)
same,GI50,DMS-114,> 100 µM (inactive)
same,GI50,LXFL 529,> 100 µM (inactive)
same,GI50,LOX IMVI,> 100 µM (inactive)
same,GI50,HCC 2998,> 100 µM (inactive)
same,GI50,A498,> 100 µM (inactive)
same,GI50,SN12C,> 100 µM (inactive)
same,GI50,HT-29,> 100 µM (inactive)
same,GI50,NCI-H522,> 100 µM (inactive)
same,GI50,SK-MEL-5,> 100 µM (inactive)
same,GI50,Malme-3M,> 100 µM (inactive)
same,GI50,SK-OV-3,> 100 µM (inactive)
same,GI50,NCI-H23,> 100 µM (inactive)
same,GI50,HOP-62,> 100 µM (inactive)
same,GI50,HCT-15,> 100 µM
same,GI50,RPMI-8226,> 100 µM (inactive)
same,GI50,SF-295,> 100 µM (inactive)
same,GI50,SF-539,> 100 µM (inactive)
same,GI50,A549,> 100 µM (inactive)
same,GI50,HOP-18,> 100 µM (inactive)
same,GI50,786-0,> 100 µM (inactive)
same,GI50,SK-MEL-2,> 100 µM (inactive)
same,GI50,OVCAR-3,> 100 µM (inactive)
same,GI50,NCI-H460,> 100 µM (inactive)
same,GI50,U-251,> 100 µM (inactive)
same,GI50,K562,> 100 µM (inactive)
same,GI50,KM-20L2,> 100 µM (inactive)
same,GI50,SNB-75,62.7 µM (inactive)
same,GI50,SW-620,> 100 µM (inactive)
same,GI50,CCRF-CEM,> 100 µM (inactive)
same,GI50,MOLT-4,> 100 µM (inactive)
same,GI50,DMS-273,> 100 µM (inactive)
same,GI50,UO-31,> 100 µM (inactive)
same,GI50,OVCAR-8,> 100 µM (inactive)
same,GI50,M19-MEL,> 100 µM (inactive)
same,GI50,HOP-92,88.1 µM (inactive)
same,GI50,UACC-62,> 100 µM (inactive)
same,GI50,M14,> 100 µM (inactive)
same,GI50,OVCAR-4,> 100 µM (inactive)
same,GI50,COLO 205,> 100 µM (inactive)
same,GI50,CAKI-1,> 100 µM (inactive)
same,GI50,OVCAR-5,> 100 µM (inactive)
CCn1c(SC(C)C(=O)c2c(C)n(C)n(-c3ccccc3)c2=O)nc2ccccc2c1=O (stereo not drawn),GI50,SR,> 100 µM (inactive)
same,GI50,SF-268,> 100 µM (inactive)
same,GI50,IGROV-1,> 100 µM (inactive)
same,GI50,HCT-116,> 100 µM (inactive)
same,GI50,UACC-257,> 100 µM (inactive)
same,GI50,KM12,> 100 µM (inactive)
same,GI50,TK-10,> 100 µM (inactive)
same,GI50,SK-MEL-28,> 100 µM (inactive)
same,GI50,DLD-1,> 100 µM (inactive)
same,GI50,HL-60,> 100 µM (inactive)
same,GI50,ACHN,> 100 µM (inactive)
same,GI50,NCI-H226,> 100 µM (inactive)
same,GI50,DMS-114,> 100 µM (inactive)
same,GI50,LXFL 529,> 100 µM (inactive)
same,GI50,LOX IMVI,> 100 µM (inactive)
same,GI50,A498,> 100 µM (inactive)
same,GI50,SN12C,> 100 µM (inactive)
same,GI50,HT-29,> 100 µM (inactive)
same,GI50,NCI-H522,84.1 µM (inactive)
same,GI50,SK-MEL-5,> 100 µM (inactive)
same,GI50,Malme-3M,> 100 µM (inactive)
same,GI50,SK-OV-3,> 100 µM (inactive)
same,GI50,NCI-H23,> 100 µM (inactive)
same,GI50,HOP-62,> 100 µM (inactive)
same,GI50,HCT-15,> 100 µM
same,GI50,EKVX,36.4 µM (inactive)
same,GI50,RPMI-8226,95.1 µM (inactive)
same,GI50,SF-295,> 100 µM (inactive)
same,GI50,SF-539,> 100 µM (inactive)
same,GI50,SNB-78,> 100 µM (inactive)
same,GI50,A549,> 100 µM (inactive)
same,GI50,786-0,> 100 µM (inactive)
same,GI50,SK-MEL-2,> 100 µM (inactive)
same,GI50,OVCAR-3,> 100 µM (inactive)
same,GI50,NCI-H460,> 100 µM (inactive)
same,GI50,U-251,> 100 µM (inactive)
same,GI50,KM-20L2,> 100 µM (inactive)
same,GI50,SNB-75,> 100 µM (inactive)
same,GI50,CCRF-CEM,> 100 µM (inactive)
same,GI50,MOLT-4,> 100 µM (inactive)
same,GI50,DMS-273,> 100 µM (inactive)
same,GI50,UO-31,> 100 µM (inactive)
same,GI50,OVCAR-8,> 100 µM (inactive)
same,GI50,M19-MEL,> 100 µM (inactive)
same,GI50,HOP-92,4.47 µM (inactive)
same,GI50,UACC-62,> 100 µM (inactive)
same,GI50,M14,> 100 µM (inactive)
same,GI50,OVCAR-4,> 100 µM (inactive)
same,GI50,COLO 205,> 100 µM (inactive)
same,GI50,OVCAR-5,> 100 µM (inactive)
